Here are results for 11 compounds from ChEMBL document CHEMBL1201862, “PubChem BioAssay data set” (2004).

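Protocol summary: plate cells (96-well), add compound at 5 concentrations, incubate 48 h, interpolate endpoints linearly. GI50 = concentration required for 50% inhibition of growth.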 Active and inactive are the calls of the source. No stated cut-off is given here; in the data, active = GI50 up to about 1.1 µM and inactive = higher.

Among the test systems are SF-268; PC-3; M14; HL-60; HOP-62; SNB-19; SK-MEL-28; A498; U-251; UO-31; T47D; HCC 2998; RXF 393; DU-145; NCI-H460; HT-29; IGROV-1; NCI-H522; A549; K562.
What all share (assay): NCI anticancer screen, dose series, 48 h

For `Oc1nc2c(c(-c3ccccc3Cl)n1)COC/C2=C\c1ccccc1Cl`, the GI50 was > 100 µM (inactive) in the assay with SF-268; > 100 µM (inactive) in the assay with PC-3; > 100 µM (inactive) in the assay on M14; 71.4 µM (inactive) in the assay with HL-60; > 100 µM (inactive) in the assay with HOP-62; > 100 µM (inactive) in the assay with SNB-19. Moreover, the GI50 is > 100 µM (inactive) with SK-MEL-28; > 100 µM (inactive) in the assay on A498; > 100 µM (inactive) in the assay on U-251; 80.9 µM (inactive) in the assay with UO-31; > 100 µM (inactive) with T47D; > 100 µM (inactive) in the assay with HCC 2998. The GI50 is > 100 µM (inactive) in the assay with RXF 393; > 100 µM (inactive) in the assay with DU-145; > 100 µM (inactive) in the assay with NCI-H460; > 100 µM (inactive) in the assay on HT-29; 43.9 µM (inactive) in the assay on IGROV-1.

For the compound `CCOC(=O)c1cc2c(OC(C)=O)ccc(OC(C)=O)c2s1`, the GI50 in the assay with NCI-H522 was 0.301 µM (active); in the assay with SF-268, 1.79 µM (inactive); in the assay with A549, 10.7 µM (inactive); in the assay with PC-3, 1.96 µM (inactive); with M14, 1.77 µM (inactive); with HL-60, 0.845 µM (active). Also, the GI50 in the assay on HOP-62 was 10.3 µM (inactive); in the assay with SNB-19, 7.03 µM (inactive); in the assay with SK-MEL-28, 2.15 µM (inactive); in the assay on A498 it was 5.28 µM (inactive); in the assay with U-251, 2.97 µM (inactive); in the assay with UO-31, 1.43 µM (inactive). Further, the GI50 was 1.48 µM (inactive) in the assay on T47D; 8.97 µM (inactive) with HCC 2998; 1.56 µM (inactive) in the assay on RXF 393; 4.83 µM (inactive) in the assay with DU-145; 5.65 µM (inactive) with NCI-H460; 3.02 µM (inactive) in the assay with HT-29. In addition, the GI50 in the assay with IGROV-1 is 1.76 µM (inactive).

Regarding `CN(C)c1ccc(C2CC(c3ccc4ccccc4c3O)=NN2)cc1` (configuration not stated), the GI50 in the assay on NCI-H522 is 22.2 µM (inactive); in the assay on K562, 25.5 µM (inactive); with SF-268, 32.5 µM (inactive); in the assay on A549 it was 31 µM (inactive); with PC-3, 32 µM (inactive); with M14, 31.8 µM (inactive). The GI50 in the assay on HOP-62 is 31 µM (inactive); with SK-MEL-28, 63.1 µM (inactive); in the assay on A498, 22.4 µM (inactive); in the assay with U-251, 33.6 µM (inactive); with UO-31, 30.1 µM (inactive); in the assay on T47D, 38.8 µM (inactive). Besides, the GI50 was 69.7 µM (inactive) in the assay with HCC 2998; 36.1 µM (inactive) in the assay on RXF 393; 50.4 µM (inactive) with DU-145; 32.2 µM (inactive) in the assay with NCI-H460; 34.4 µM (inactive) in the assay with HT-29; 24.9 µM (inactive) with IGROV-1.

Regarding `c1cc(C[S+]2CCCC2)oc1C[S+]1CCCC1`, the GI50 with NCI-H522, in the assay with K562, in the assay on SF-268, in the assay on A549, with PC-3 and in the assay with M14 was > 100 µM (inactive) throughout. The GI50 is > 100 µM (inactive) in the assay with HOP-62; > 100 µM (inactive) with SNB-19; > 100 µM (inactive) in the assay with SK-MEL-28; 53.6 µM (inactive) with A498; > 100 µM (inactive) with U-251; > 100 µM (inactive) with UO-31. The GI50 in the assay on T47D, in the assay with HCC 2998, in the assay on RXF 393, with DU-145, in the assay on NCI-H460 and in the assay on HT-29 was > 100 µM (inactive) throughout. In addition, the GI50 in the assay on IGROV-1 is > 100 µM (inactive).

As for `c1ccc(Nc2nn3c(CCCCCCCCc4nnc5sc(Nc6ccccc6)nn45)nnc3s2)cc1`, the GI50 in the assay on NCI-H522 was 20.2 µM (inactive); with K562 it was 15.3 µM (inactive); with SF-268, 43 µM (inactive); in the assay with A549, 21.6 µM (inactive); with PC-3, 31 µM (inactive); in the assay on M14 it was 16.5 µM (inactive). Besides, the GI50 in the assay on HOP-62 is 38.5 µM (inactive); in the assay on SNB-19, 26 µM (inactive); in the assay with SK-MEL-28, 27.6 µM (inactive); with A498 it was 36.2 µM (inactive); in the assay on U-251, 35.2 µM (inactive); in the assay on UO-31, 22.1 µM (inactive). Also, the GI50 was 13.2 µM (inactive) with T47D; 60.8 µM (inactive) in the assay with HCC 2998; 41.6 µM (inactive) with RXF 393; 47.8 µM (inactive) in the assay with DU-145; 32.4 µM (inactive) in the assay on NCI-H460; 21.9 µM (inactive) with HT-29.

Regarding `COc1ccc(-n2sc3ncc(-c4ccccc4)cc3c2=O)cc1`, the GI50 in the assay with A549 is 35.9 µM (inactive); in the assay on PC-3 it was 42.9 µM (inactive); with M14, 80 µM (inactive); in the assay on HL-60 it was 20.5 µM (inactive); in the assay with HOP-62, > 100 µM (inactive); in the assay on SNB-19, 29.4 µM (inactive). The GI50 was 37 µM (inactive) in the assay with SK-MEL-28; > 100 µM (inactive) with A498; 27.6 µM (inactive) with U-251; 21.7 µM (inactive) in the assay on UO-31; > 100 µM (inactive) in the assay with T47D; 92.7 µM (inactive) in the assay with HCC 2998. Moreover, the GI50 in the assay on RXF 393 was 40.2 µM (inactive); with DU-145, 61.7 µM (inactive); in the assay with NCI-H460, > 100 µM (inactive); in the assay with IGROV-1, 22.1 µM (inactive).

As for `CCCCCCCCCCCCCCCCNc1nc(=O)n(C2CC(O)C(CO)O2)cc1F` (configuration not stated), the GI50 with NCI-H522 is 5.28 µM (inactive); in the assay with SF-268 it was 2.93 µM (inactive); with A549, 0.94 µM (active); in the assay with PC-3, 3.93 µM (inactive); in the assay on M14, 8.57 µM (inactive); in the assay with HL-60, 5.47 µM (inactive). In addition, the GI50 with HOP-62 was 7.52 µM (inactive); in the assay with SNB-19, 13.7 µM (inactive); in the assay with SK-MEL-28 it was 12.7 µM (inactive); in the assay with A498, > 10 µM (inactive); in the assay on U-251, 11.7 µM (inactive); in the assay on UO-31, 1.4 µM (inactive). The GI50 in the assay with T47D was 11.7 µM (inactive); in the assay on HCC 2998, 0.071 µM (active); with RXF 393, 13.5 µM (inactive); in the assay with DU-145, 10 µM (inactive); in the assay with NCI-H460, 10.7 µM (inactive); with HT-29, 9.84 µM (inactive). The GI50 in the assay on IGROV-1 was 11.6 µM (inactive).

Take `CCCC(=O)NC(Nc1ccc(F)cc1)(C(F)(F)F)C(F)(F)F`: the GI50 was 27.4 µM (inactive) in the assay on NCI-H522; 0.1 µM (active) in the assay with K562; > 100 µM (inactive) with SF-268; 16.9 µM (inactive) in the assay with A549; 19.1 µM (inactive) in the assay on PC-3; 0.387 µM (active) in the assay on M14. In addition, the GI50 was 1.75 µM (inactive) in the assay with HL-60; > 100 µM (inactive) in the assay on HOP-62; > 100 µM (inactive) with SNB-19; > 75.2 µM (inactive) with SK-MEL-28; > 100 µM (inactive) in the assay with A498; > 100 µM (inactive) in the assay on U-251. For the same compound, the GI50 was 9.48 µM (inactive) in the assay with UO-31; 7.14 µM (inactive) in the assay on T47D; 98.6 µM (inactive) with HCC 2998; > 100 µM (inactive) in the assay on RXF 393; 33.2 µM (inactive) with DU-145; 56.5 µM (inactive) with NCI-H460. For the same compound, the GI50 in the assay with HT-29 was 64.3 µM (inactive).

For the compound `C=CCC1CC(n2cc(C)c(=O)[nH]c2=O)OC1CO[Si](C)(C)C(C)(C)C` (configuration not stated), the GI50 with NCI-H522 was 10.4 µM (inactive); in the assay on K562, 0.163 µM (active); in the assay on SF-268 it was 15.6 µM (inactive); in the assay with A549, 12.3 µM (inactive); in the assay with PC-3, 11.4 µM (inactive); in the assay with M14, 18.6 µM (inactive). Also, the GI50 with HOP-62 was 18.3 µM (inactive); with SNB-19, 16.2 µM (inactive); with SK-MEL-28, 16.3 µM (inactive); in the assay on A498 it was 19.1 µM (inactive); with U-251, 13.6 µM (inactive); with UO-31, 11.4 µM (inactive). The GI50 with T47D is 10.4 µM (inactive); with HCC 2998 it was 17.9 µM (inactive); in the assay with RXF 393 it was 4.06 µM (inactive); in the assay with DU-145 it was 13.5 µM (inactive); in the assay on NCI-H460, 16.5 µM (inactive); in the assay with HT-29, 15.9 µM (inactive). In addition, the GI50 in the assay on IGROV-1 was 11.2 µM (inactive).

For the compound `CN(C)c1ccc(C(Cc2ccccc2)C2NC(=S)NC2=O)cc1` (configuration not stated), the GI50 in the assay with NCI-H522 was > 100 µM (inactive); in the assay on K562 it was 31.1 µM (inactive); in the assay with SF-268 it was > 100 µM (inactive); in the assay with A549 it was > 100 µM (inactive); in the assay with PC-3, > 100 µM (inactive); in the assay on M14 it was > 100 µM (inactive). The GI50 was 29.1 µM (inactive) in the assay with HL-60; > 100 µM (inactive) with HOP-62; > 100 µM (inactive) with SNB-19; > 100 µM (inactive) in the assay on SK-MEL-28; > 100 µM (inactive) with A498; > 94 µM (inactive) in the assay with U-251. The GI50 in the assay on UO-31 was > 100 µM (inactive); in the assay with T47D, > 100 µM (inactive); in the assay with RXF 393, > 100 µM (inactive); in the assay with DU-145, > 100 µM (inactive); in the assay on NCI-H460, 99.8 µM (inactive); in the assay on HT-29 it was > 83.6 µM (inactive). Further, the GI50 with IGROV-1 is > 100 µM (inactive).

`O=C1OC(C2=CC(=O)c3ccccc3C2=O)C(Cl)=C1Cl` (configuration not stated): the GI50 is 15.9 µM (inactive) in the assay with NCI-H522; 32.7 µM (inactive) with K562; 27.2 µM (inactive) in the assay with SF-268; 89.5 µM (inactive) in the assay with A549; 27.3 µM (inactive) in the assay with PC-3; 39.3 µM (inactive) in the assay with M14. For the same compound, the GI50 in the assay on HL-60 was 35.9 µM (inactive); in the assay with HOP-62, 33.1 µM (inactive); in the assay with SNB-19 it was 56.1 µM (inactive); in the assay on SK-MEL-28 it was 41 µM (inactive); with A498, 42.8 µM (inactive); with U-251 it was 28.1 µM (inactive). Also, the GI50 was 13.7 µM (inactive) with UO-31; 29.1 µM (inactive) in the assay on T47D; 25.1 µM (inactive) in the assay on HCC 2998; 25.2 µM (inactive) in the assay on RXF 393; 39.7 µM (inactive) with DU-145; 56.8 µM (inactive) in the assay with NCI-H460. The GI50 in the assay on HT-29 is 42 µM (inactive).
